From the supplement of paper PMC4862054

Experiments:
Conditions in all cases: 72 h
[1] = tested on: BT-549
In short: (§1)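 For viability and cell death testing, 384-well plates carried compound at 5 concentrations in 10-fold steps over a compound-specific 10,000-fold range, and breast cancer cell lines were seeded in 20 µl suspension. After 72 h incubation, cell death was read by CellTox Green fluorescence (485/520 nm) before viability was read by CellTiter-Glo luminescence. EC50 was fitted from the dose-response curves and censored at the top concentration. Normalisation on each plate was to 0.1 % DMSO and a positive kill control.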

[2] = tested on: CAL-120
In short: as §1

[3] = tested on: CAL-148
In short: as §1

[4] = tested on: CAL-85-1
In short: as §1

[5] = tested on: DU-4475
In short: as §1

[6] = tested on: HCC1143
In short: as §1

[7] = tested on: HCC1599
In short: as §1

[8] = tested on: HCC1937
In short: as §1

[9] = tested on: HDQ-P1
In short: as §1

[10] = tested on: Hs578T
In short: as §1

[11] = tested on: MCF-10A
In short: as §1

[12] = tested on: MDA-MB-231
In short: as §1

[13] = tested on: MDA-MB-436
In short: as §1

[14] = tested on: MDA-MB-453
In short: as §1

[15] = tested on: MFM-223
In short: as §1

[16] = tested on: SK-BR-3
In short: as §1

[17] = tested on: CAL-51
In short: (§2)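 To measure viability, fluorescence at 560/590 nm was read after 2.5 µl CellTiter-Blue had been added for 2 h at 37 °C. Cells from breast cancer lines had been seeded in 20 µl suspension onto 384-well plates pre-loaded with compound dissolved in 5 µl medium and kept for 72 h. EC50 comes from a fitted percent-inhibition dose-response curve censored at the highest concentration, after per-plate normalisation to vehicle and a positive kill control, Z'-factor checks, and removal of rows with zero drug sensitivity score.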

[18] = tested on: CAL-85-1; remark: listed apart in the source
In short: as §2

[19] = tested on: DU-4475; remark: listed apart in the source
In short: as §2

[20] = tested on: HDQ-P1; remark: listed apart in the source
In short: as §2

[21] = tested on: BT-474
In short: as §2

[22] = tested on: BT-549; remark: listed apart in the source
In short: as §2

[23] = tested on: HCC1143; remark: listed apart in the source
In short: as §2

[24] = tested on: HCC1599; remark: listed apart in the source
In short: as §2

[25] = tested on: Hs578T; remark: listed apart in the source
In short: as §2

[26] = tested on: MDA-MB-436; remark: listed apart in the source
In short: as §2

[27] = tested on: MDA-MB-468
In short: as §2

[28] = tested on: MFM-223; remark: listed apart in the source
In short: as §2

[29] = tested on: SK-BR-3; remark: listed apart in the source
In short: as §2

[30] = tested on: BT-474; remark: listed apart in the source
Protocol: (§3)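 Drug sensitivity and resistance testing (DSRT) of breast cancer cell lines in 384-well plates, 5 concentrations in 10-fold dilutions over a compound-specific 10,000-fold range. After 72 h, cytotoxicity was read by CellTox Green fluorescence and viability by CellTiter-Glo luminescence (multiplexed), normalised to DMSO and benzethonium chloride controls. EC50 is the inflection point of the fitted dose-response curve (bottom asymptote free, so it can be relative for partial curves) and is censored at the highest tested concentration. Rows with DSS 0 (no meaningful response) were excluded.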

[31] = tested on: BT-549; remark: listed apart in the source
Protocol: as §3

[32] = tested on: CAL-120; remark: listed apart in the source
Protocol: as §3

[33] = tested on: CAL-148; remark: listed apart in the source
Protocol: as §3

[34] = tested on: CAL-51; remark: listed apart in the source
Protocol: as §3

[35] = tested on: CAL-85-1; remark: listed apart in the source
Protocol: as §3

[36] = tested on: DU-4475; remark: listed apart in the source
Protocol: as §3

[37] = tested on: HCC1143; remark: listed apart in the source
Protocol: as §3

[38] = tested on: HDQ-P1; remark: listed apart in the source
Protocol: as §3

[39] = tested on: Hs578T; remark: listed apart in the source
Protocol: as §3

[40] = tested on: MCF-10A; remark: listed apart in the source
Protocol: as §3

[41] = tested on: MDA-MB-231; remark: listed apart in the source
Protocol: as §3

[42] = tested on: MDA-MB-453; remark: listed apart in the source
Protocol: as §3

[43] = tested on: MFM-223; remark: listed apart in the source
Protocol: as §3

CN[C@@H]1C[C@H]2O[C@@](C)([C@@H]1OC)n1c3ccccc3c3c4c(c5c6ccccc6n2c5c31)C(=O)N[C@H]4O [UCN-01]
EC50, CellTiter-Glo [1]: 118 nM | EC50, CellTiter-Glo [2]: 43.6 nM | EC50, CellTiter-Glo [3]: 1490 nM | EC50, CellTiter-Glo [4]: 81.3 nM | EC50, CellTiter-Glo [5]: 184 nM | EC50, CellTiter-Glo [6]: 145 nM | EC50, CellTiter-Glo [7]: 28 nM | EC50, CellTiter-Glo [8]: 193 nM | EC50, CellTiter-Glo [9]: 217 nM | EC50, CellTiter-Glo [10]: 36.8 nM | EC50, CellTiter-Glo [11]: 45.7 nM | EC50, CellTiter-Glo [12]: 34.4 nM | EC50, CellTiter-Glo [13]: 88.1 nM | EC50, CellTiter-Glo [14]: 277 nM | EC50, CellTiter-Glo [15]: 137 nM | EC50, CellTiter-Glo [16]: 57.6 nM | EC50, CellTiter-Blue viability [17]: 140 nM | EC50, CellTiter-Blue viability [18]: 175 nM | EC50, CellTiter-Blue viability [19]: 212 nM | EC50, CellTiter-Blue viability [20]: 59.7 nM | EC50, CellTiter-Blue viability [21]: 846 nM | EC50, CellTiter-Blue viability [22]: 111 nM | EC50, CellTiter-Blue viability [23]: 48.5 nM | EC50, CellTiter-Blue viability [24]: 98.1 nM | EC50, CellTiter-Blue viability [25]: 30.6 nM | EC50, CellTiter-Blue viability [26]: 695 nM | EC50, CellTiter-Blue viability [27]: 105 nM | EC50, CellTiter-Blue viability [28]: 355 nM | EC50, CellTiter-Blue viability [29]: 80.2 nM | EC50, CellTox Green [30]: 2470 nM | EC50, CellTox Green [31]: 220 nM | EC50, CellTox Green [32]: 1580 nM | EC50, CellTox Green [33]: 6850 nM | EC50, CellTox Green [34]: 63.9 nM | EC50, CellTox Green [35]: 168 nM | EC50, CellTox Green [36]: 128 nM | EC50, CellTox Green [37]: 114 nM | EC50, CellTox Green [38]: 34.3 nM | EC50, CellTox Green [39]: 266 nM | EC50, CellTox Green [40]: 130 nM | EC50, CellTox Green [41]: 88.8 nM | EC50, CellTox Green [42]: 6000 nM | EC50, CellTox Green [43]: 46.3 nM
